Test results: article PMC5787524, “Discovery of a FLT3 inhibitor LDD1937 as an anti-leukemic agent for acute myeloid leukemia” (Oncotarget, 2017)
Several values for one entry are separate records, joined by “and”; a condition that tells them apart may be missing. Equal values may be shown once. Entries after “also recorded” stand apart in the source; their conditions may differ. Read-outs that look alike come from different tables or passages of the source.

Columns and labels:
Jurkat cells = assay: Cell viability / growth inhibition (EZ-Cytox), Jurkat; assay type: cell-based; details: Homo sapiens, Table 2, 72 h
Experimental: (§1) MV-4-11 human acute myeloid leukemia cells were purchased from the American Type Culture Collection (ATCC, Rockville, MD, USA, CRL-9591), and the cells were cultured in IMDM medium (Sigma Co., St. Louis, MO, USA) supplemented with 10% fetal bovine serum, 1% penicillin/streptomycin and 4 mM L-glutamine (Life Technology, Grand Island, NY). Jurkat (human acute T lymphocytic leukemia, ATCC TIB-152) and K562 (human chronic myelogenous leukemia, ATCC CCL-243) cells were cultured in RPMI-1640 (Sigma Co.), and MCF7 (human breast adenocarcinoma, ATCC HTB-22) and PC-3 (human prostate adenocarcinoma, ATCC CRL-1435) cells were cultured in DMEM (Sigma Co.) medium supplemented with 10% fetal bovine serum and 1% penicillin/streptomycin. The cultured cells were incubated at 37°C with 5% CO2. Cell viability was assessed with a tetrazolium-based assay using the EZ-Cytox Cell Viability Assay kit (DaeilLab, Korea). Briefly, 2,000 ∼ 15,000 cells were plated in 96-well flat bottom plates in 100 µl of medium. The next day, the cells were treated with compounds along with dimethyl sulfoxide (DMSO, Fisher, Waltham, MA, USA) as a negative control. […] After incubation, the optical density (OD) was measured at a wavelength of 450 nm with a Victor multilabel reader (Perkin Elmer, Waltham, MA, USA). The IC50 was calculated with nonlinear regression using Prism version 5.01 (GraphPad, La Jolla, CA, USA).

K562 cells = assay: Cell viability / growth inhibition (EZ-Cytox), K562; assay type: cell-based; details: Homo sapiens, Table 2, 72 h
Experimental: as §1

MV-4-11 cells = assay: Annexin V / propidium iodide flow cytometry (apoptosis); assay type: cell-based, human; details: 10 nM, 24 h
Experimental: For Annexin V staining, the Alexa Flour® 488 Annexin V/ Dead Cell Apoptosis Kit (ThermoFisher, USA) was used. Cells were seeded in 6-well plates (1 × 10^6 cells per well) and treated with compounds for 24 h. The cells were stained with Annexin V and propidium iodide (PI) according to the manufacturer’s instruction. Then, the cells were subjected to flow cytometry using an Accuri C6 flow cytometer (BD Bio-sciences, San Jose, CA, USA). The data were analyzed with the BD Accuri C6 software.

[1] = Pharmacokinetics in mice (intravenous and oral); assay type: in vivo, ICR mice; details: for AUC: read-out: AUC (converted); for half-life: read-out: Terminal half-life
Experimental: The protocols for the animal studies were approved by the Institute of Laboratory Animal Resources of Dongguk University, Seoul, South Korea (IACUC-2015-055-1). Five-week-old male Imprinting Control Region (ICR) mice were purchased from the Charles River Company Korea (Orient, Seoul, South Korea). Upon arrival, the animals were randomized and housed four per cage under strictly controlled environmental conditions (22-25°C and 48-52% relative humidity) with a 12 h light/dark cycle at an intensity of 150 to 300 Lux. All mice were provided food and water ad libitum and were then maintained during this study. In the intravenous study of LDD1937, 10 mg/kg of LDD1937 (dissolved in distilled water at a concentration of 2 mg/ml) were intravenously injected into the mice through the tail vein. A blood sample of approximately 0.12 ml was collected by cardiac puncture. Additionally, in the oral study of LDD1937, 10 mg/kg of LDD1937 (dissolved in the same solution used in the intravenous study) were orally administered to the mice. The analysis of LDD1937 and LDD1940, a metabolite of LDD1937, in biological samples was done with LC-MS/MS using the Waters UPLC-XEVO TQ system (Waters Corporation, Milford, CT, USA). […]1940, and carbamazepine (an internal standard, IS) were ionized in the multiple reaction monitoring mode with an ESI interface for positive ions ([M+H]^+). The turbo ion-spray interface was operated at an ion capillary voltage of 3.0 kV with a desolvation gas flow of 650 l/h and a cone gas flow of 10 l/h at 350°C. […] Separation was done on a reverse-phase C18 column (BEH, […]; Waters, Ireland) with a mobile phase, distilled water containing 0.1% formic acid and acetonitrile, at 30°C. After measuring the concentrations of the LDD1937 and LDD1940, standard methods were used to calculate the pharmacokinetic parameters using a non-compartmental analysis (WinNonlin 2.1; […] Corp., Mountain View, CA, USA).

MV-4-11 xenograft = assay: MV-4-11 mouse tumor xenograft; assay type: in vivo, BALB/c nu/nu mice
Experimental: MV-4-11 cells were inoculated subcutaneously in the flank of female BALB/c nu/nu (athymic nude) mice (5 × 10^6 cells per mouse). […] The drug or the control PBS was administered daily for a duration of 21 days. Tumor sizes were measured twice a week for 21 days, and the tumor volumes were calculated with the following formula: V (volume) = X (length) × D (width)^2/2. After 21 days, the mice were sacrificed, and the tumor weights were measured.

[2] = LDD1937, mice, 10 mg/kg intravenous
[3] = male, ICR, mouse, plasma, LDD1937, mice, 10 mg/kg intravenous
[4] = male, ICR, mouse, plasma, LDD1937, mice, 10 mg/kg oral

Compound: COC(=O)c1ccc2c(c1)/C(=C1/Nc3ccccc3/C1=N\OCCN1CCNCC1)C(=O)N2.Cl.Cl [LDD1937, methyl (2Z,3E)-2′-oxo-3-((2-(piperazin-1-yl)ethoxy)imino)-[2,3′-biindolinylidene]-5′-carboxylate dihydrochloride]
- GI50 (Jurkat cells): 1440 ± 290 nM
- GI50 (K562 cells): 1210 ± 330 nM
- cells in upper right quadrant (Annexin V+ and PI+, late apoptotic) (MV-4-11 cells): 24.8%
- CLNR [1, 2]: 83.6 ± 9.81 mL/min/kg
- GI24 h (total amount recovered from the gastrointestinal tract at 24 h) [1, 2]: 0.336 ± 0.0235 % of dose
- Ae0–24 h (total amount excreted in 24-h urine) ([1]; LDD1937, mice, 10 mg/kg intravenous, 10 mg/kg): 0.283 % of dose and 0.283 ± 0.0252 % of dose
- Ae0–24 h ([1]; LDD1937, mice, 10 mg/kg oral): 0.213 ± 0.0163 % of dose
- GI24 h ([1]; LDD1937, mice, 10 mg/kg oral, 10 mg/kg): 1.67 % of dose and 1.67 ± 1.92 % of dose
- concentration at 10 h ([1]; male, ICR, mouse, plasma, 10 h after 10 mg/kg intravenous dosing, mice, read-out: plasma level): 30 ng/mL
- MRT [1, 3]: 2.77 h
- clearance [1, 3]: 83.6 ± 9.81 mL/min/kg
- AUC [1, 3]: 2000 ng·h/mL
- half-life [1, 3]: 2.9 ± 0.47 h
- Vd ([1]; male, ICR, mouse, plasma, LDD1937, mice, 10 mg/kg intravenous, read-out: Vss): 14.1 ± 4.31 L/kg
- bioavailability [1, 4]: 1.43%
- AUC [1, 4]: 29.8 ng·h/mL
- Cmax ([1]; male, ICR, mouse, plasma, LDD1937, mice, 10 mg/kg oral, read-out: Cmax): 23.3 ± 26.2 ng/mL
- half-life [1, 4]: 1.72 ± 0.542 h
- Tmax ([1]; male, ICR, mouse, plasma, LDD1937, mice, 10 mg/kg oral, read-out: Tmax (converted)): 0.5 h
- plasma concentration reached ([1]; single dose 10 mg/kg intravenous, mice): 2700 ng/mL
- tumor weight (MV-4-11 xenograft; 5 mg/kg intravenous daily, day 21, vs control): significant reduction
- tumor volume / tumor mass (MV-4-11 xenograft; 10 mg/kg intravenous daily for 21 days): the tumor disappeared from day 3; also recorded: completely disappear from day 3
- body weight (MV-4-11 xenograft; 5 and 10 mg/kg intravenous daily, administration period, between groups): no significant difference in body weight
- tumor volume and weight (MV-4-11 xenograft; 5 and 10 mg/kg intravenous, vs control): significantly reduced
